Read-outs that look alike come from different tables or passages of the source. Values belong to the molecule of their own block, whether it stands above or below them.
Experiments:
[1] = Micro-PET-CT tissue absorption of F-DOPA, SipNose nasal application versus I/V administration; conditions: rat
Description: The objective of the experiment was to compare nasal application with SipNose device to a systemic application by IV administration of F-DOPA (that corresponds to the drug L-DOPA) by means of brain absorption (namely the target tissue) and systemic absorption (namely non relevant tissues contamination).
• Animals were anesthetized with a Ketamine-Xylazine cocktail. • Animals were treated according to the 2 groups as below: • 1. Systemic administration of F-DOPA by I/V injection of 1 ml. Administration doses were between 17 and 83 μg, and injected radioactivity dose was around 1000 μCi. • 2. Nasal application of F-DOPA by SipNose device application of 13-20 μl. Administration doses were between 1.2 and 2.8 μg, and injected radioactivity doses were around 26 μCi. All I/V administered animals and part of the Nasal applied animals (as will be indicated) were pre-treated with 10 mg/kg Carbidopa (by IP administration) 30 min prior to L-DOPA administration to eliminate peripheral conversion to dopamine. • Animals were subjected to Micro-PET-CT. PET scans were done for 45 min following L-DOPA administration by I/V or Nasal route. • Analysis of F-DOPA absorption in the following tissues was tested: • Brain, Heart, Lungs, liver.

[2] = Dye deposition in the olfactory epithelium following application with the present device; type: in vivo; conditions: rat, 15 microliter to one nostril with the present device, post mortem (FIG. 31B)
Description: Methylene Blue solution (as in Example 1) was applied to the rat nose with the present device. 15 microliter was applied to one nostril and immediately after that the animal was sacrificed and the nasal and brain tissue were exposed to follow the dye deposition.

[3] = Description: Brain uptake of a compound with low blood-brain barrier (BBB) penetration ^11C-choline, was applied by the device of the present application (refers also as SipNose). 33.2 μCi/5.3 μmol (approx. 0.551 mg) of ^11C-choline was applied by the device of the present application to a 381 gm rat. A 45 min. dynamic PET scan was performed followed by a CT scan.
It should be noted that in the above mentioned examples, the compressed gas is in volumes of about 15 ml and compressed to about 7 bar.
Comparison of brain uptake of a compound with low blood-brain barrier (BBB) penetration, when applied to the nasal cavity with the device of the present application to deposition in the respiratory epithelium in the nasal cavity.
It should be noted that in the above mentioned examples, the compressed gas is in volumes of about 5 ml and compressed to about 4 bar.
Comparison of brain uptake of a compound with low blood-brain barrier (BBB) penetration, when applied with the present device versus intravenous (I/V) injection.
The data shown are the average of three trials for the present device, and the average of two trials for each of the I/V administration and the general nasal administration. The bar heights are relative to the brain concentration of ^11C choline after I/V administration.

[4] = rat, injected intravenously (I/V)
[5] = rat, via the present device (FIG. 41)

Compound: N[C@@H](Cc1cc(O)c(O)cc1F)C(=O)O [F-Dopa, F-DOPA]
- SipNose nasal application with versus without Carbidopa pre-treatment ([1]; 10 mg/kg Carbidopa IP 30 min prior): same results whether a pre-treatment with Carbidopa was given or not
- brain concentrations, SipNose nasal application versus I/V ([1]; 22.5 min post treatment (t50 of the PET scan)): comparable
- peripheral uptake compared to brain uptake ([1]; nasal application, heart, lungs, liver): lower peripheral concentrations than the brain F-Dopa concentrations
- percentage of absorption in peripheral tissues relative to brain absorption, nasal versus I/V ([1]; heart, lungs, liver): lower in the nasal treated animals than in the I/V treated animals

- location of dye deposition in the nasal cavity [2]: concentrated at the olfactory epithelium
Compound: CN(C)c1ccc2nc3ccc(=[N+](C)C)cc-3sc2c1 [Methylene Blue]

- location of deposition in the nasal cavity ([3]; live rat, PET-CT scan, present device (FIG. 31A)): concentrated at the olfactory epithelium
- brain uptake with the present device relative to I/V application ([3]; rat, FIG. 38B versus FIG. 37B): more than 6 times
- uptake to the brain ([3]; rat, I/V injection (FIG. 39)): less than 0.2 % of the administered dose
- uptake to the brain ([3]; rat, SipNose nasal application, about 15 ml gas at about 7 bar, increasing gradually thereafter, 45 min dynamic PET scan): 0.6 % ID/ml
- uptake to the brain ([3]; rat, SipNose nasal application, about 15 ml gas at about 7 bar, very shortly following administration): about 0.5 % ID/ml
- brain uptake as share of the total drug administrated ([3]; rat, SipNose nasal application, corresponds to the % ID/ml values): ~1.2%
- uptake entering the brain ([3]; rat, applied with the present device (FIG. 38B)): more than 0.5 % ID/ml
- locations of uptake ([3]; rat, applied with the present device (SipNose), listed as 11C choline): mainly to the olfactory epithelium
- brain concentration relative to I/V administration ([3]; rat, general nasal application, average of two trials (FIG. 40)): the same or slightly more
- locations of uptake [3, 4]: mostly to the liver
- uptake to the brain [3, 4]: about 0.1 % ID/ml
- uptake of the radioactivity in the brain ([3]; rat, nasal application tuned to respiratory epithelium (about 5 ml, about 4 bar), no olfactory deposition, 45 minutes after activation): less than 0.1%
- uptake of the radioactivity in the pharynx ([3]; rat, nasal application tuned to respiratory epithelium (about 5 ml, about 4 bar), less than a minute after activation): more than 0.4%
- brain concentration relative to I/V administration ([3]; rat, present SipNose device, average of three trials (FIG. 40)): more than five times as great
- uptake to the brain ([3]; rat, present device (FIG. 39)): more than 1 % of the administered dose
- net uptake to non-olfactory brain tissues [3, 5]: about 2.5 μg
- total uptake to the brain [3, 5]: ~6 µg
- uptake to the olfactory bulbs [3, 5]: about 3 μg
Compound: C[N+](C)(C)CCO [^11C-choline]
- locations of uptake ([3]; rat, applied with the present device (SipNose)): greatest in the olfactory epithelium and least in the lungs

Source: patent US10549052B2, “Nasal delivery device” (SIPNOSE LTD., priority 2012, dated 2020)
